According to ChEMBL document CHEMBL1240437, “Structural characterization and antibacterial activity against clinical isolates of Staphylococcus of N-phenylamide of monensin A and its 1:1 complexes with monovalent cations” (2010):
Converted amounts (≈) assume the structure as drawn.

Key:
Type in all cases: functional
Staphylococcus aureus [1] = experiment: Antimicrobial activity against methicillin-susceptible Staphylococcus aureus 322/08 after 18 hrs by disc-diffusion method; settings: 322/08, 18 h
Staphylococcus aureus [2] = experiment: Antimicrobial activity against methicillin-resistant Staphylococcus aureus 307/08 after 18 hrs by disc-diffusion method; settings: 307/08, 18 h
[3] = test system: Staphylococcus epidermidis; experiment: Antimicrobial activity against methicillin-resistant Staphylococcus epidermidis 317/08 after 18 hrs by disc-diffusion method; settings: 317/08, 18 h
Staphylococcus aureus [4] = experiment: Antimicrobial activity against methicillin-resistant Staphylococcus aureus 308/08 after 18 hrs by disc-diffusion method; settings: 308/08, 18 h
[5] = test system: Staphylococcus epidermidis; experiment: Antimicrobial activity against methicillin-resistant Staphylococcus epidermidis 289/08 after 18 hrs by disc-diffusion method; settings: 289/08, 18 h
Staphylococcus aureus [6] = experiment: Antimicrobial activity against methicillin-resistant Staphylococcus aureus 332/08 after 18 hrs by disc-diffusion method; settings: 332/08, 18 h
Staphylococcus aureus [7] = experiment: Antimicrobial activity against methicillin-susceptible Staphylococcus aureus 327/08 after 18 hrs by disc-diffusion method; settings: 327/08, 18 h
Staphylococcus aureus [8] = experiment: Antimicrobial activity against methicillin-resistant Staphylococcus aureus 309/08 after 18 hrs by disc-diffusion method; settings: 309/08, 18 h
Staphylococcus aureus [9] = experiment: Antimicrobial activity against methicillin-susceptible Staphylococcus aureus 328/08 after 18 hrs by disc-diffusion method; settings: 328/08, 18 h
[10] = test system: Staphylococcus epidermidis; experiment: Antimicrobial activity against methicillin-resistant Staphylococcus epidermidis 316/08 after 18 hrs by disc-diffusion method; settings: 316/08, 18 h
Staphylococcus aureus [11] = experiment: Antimicrobial activity against methicillin-resistant Staphylococcus aureus 331/08 after 18 hrs by disc-diffusion method; settings: 331/08, 18 h
[12] = test system: Staphylococcus epidermidis; experiment: Antimicrobial activity against methicillin-resistant Staphylococcus epidermidis 290/08 after 18 hrs by disc-diffusion method; settings: 290/08, 18 h
Staphylococcus aureus [13] = experiment: Antimicrobial activity against methicillin-resistant Staphylococcus aureus 335/08 after 18 hrs by disc-diffusion method; settings: 335/08, 18 h
Staphylococcus aureus [14] = experiment: Antimicrobial activity against methicillin-susceptible Staphylococcus aureus 324/08 after 18 hrs by disc-diffusion method; settings: 324/08, 18 h
Staphylococcus aureus [15] = experiment: Antimicrobial activity against methicillin-susceptible Staphylococcus aureus 320/08 after 18 hrs by disc-diffusion method; settings: 320/08, 18 h
[16] = test system: Staphylococcus epidermidis; experiment: Antimicrobial activity against methicillin-resistant Staphylococcus epidermidis 293/08 after 18 hrs by disc-diffusion method; settings: 293/08, 18 h
Staphylococcus aureus [17] = experiment: Antimicrobial activity against methicillin-susceptible Staphylococcus aureus 319/08 after 18 hrs by disc-diffusion method; settings: 319/08, 18 h
[18] = test system: Staphylococcus epidermidis; experiment: Antimicrobial activity against methicillin-resistant Staphylococcus epidermidis 318/08 after 18 hrs by disc-diffusion method; settings: 318/08, 18 h
Staphylococcus aureus [19] = experiment: Antimicrobial activity against methicillin-resistant Staphylococcus aureus 334/08 after 18 hrs by disc-diffusion method; settings: 334/08, 18 h
[20] = test system: Staphylococcus epidermidis; experiment: Antimicrobial activity against methicillin-resistant Staphylococcus epidermidis 311/08 after 18 hrs by disc-diffusion method; settings: 311/08, 18 h
Staphylococcus aureus [21] = experiment: Antimicrobial activity against methicillin-resistant Staphylococcus aureus 330/08 after 18 hrs by disc-diffusion method; settings: 330/08, 18 h
Staphylococcus aureus [22] = experiment: Antimicrobial activity against methicillin-susceptible Staphylococcus aureus 321/08 after 18 hrs by disc-diffusion method; settings: 321/08, 18 h
[23] = test system: Staphylococcus epidermidis; experiment: Antimicrobial activity against methicillin-resistant Staphylococcus epidermidis 291/08 after 18 hrs by disc-diffusion method; settings: 291/08, 18 h
[24] = test system: Staphylococcus epidermidis; experiment: Antimicrobial activity against methicillin-resistant Staphylococcus epidermidis 315/08 after 18 hrs by disc-diffusion method; settings: 315/08, 18 h
[25] = test system: Staphylococcus epidermidis; experiment: Antimicrobial activity against methicillin-resistant Staphylococcus epidermidis 292/08 after 18 hrs by disc-diffusion method; settings: 292/08, 18 h
Staphylococcus aureus [26] = experiment: Antimicrobial activity against methicillin-susceptible Staphylococcus aureus 326/08 after 18 hrs by disc-diffusion method; settings: 326/08, 18 h
Staphylococcus aureus [27] = experiment: Antimicrobial activity against methicillin-resistant Staphylococcus aureus 329/08 after 18 hrs by disc-diffusion method; settings: 329/08, 18 h
Staphylococcus aureus [28] = experiment: Antimicrobial activity against methicillin-susceptible Staphylococcus aureus 339/08 after 18 hrs by disc-diffusion method; settings: 339/08, 18 h
Staphylococcus aureus [29] = experiment: Antimicrobial activity against methicillin-susceptible Staphylococcus aureus 338/08 after 18 hrs by disc-diffusion method; settings: 338/08, 18 h
Staphylococcus aureus [30] = experiment: Antimicrobial activity against methicillin-resistant Staphylococcus aureus 333/08 after 18 hrs by disc-diffusion method; settings: 333/08, 18 h

For CC[C@@]1([C@H]2O[C@@H]([C@H]3O[C@@](O)(CO)[C@H](C)C[C@@H]3C)C[C@@H]2C)CC[C@@H]([C@]2(C)CC[C@]3(C[C@H](O)[C@@H](C)[C@@H]([C@@H](C)[C@@H](OC)[C@H](C)C(=O)Nc4ccccc4)O3)O2)O1, which MIC (Staphylococcus aureus [1]) is on record?
Its MIC is 16.8 µM (≈ 12.5 µg/mL).

What about the MIC (Staphylococcus aureus [2]) of the same compound?
The MIC was 8.37 µM (≈ 6.24 µg/mL).

And the MIC [3]?
The MIC was 8.37 µM (≈ 6.24 µg/mL).

What about the MIC (Staphylococcus aureus [4]) of the same compound?
The MIC was 8.37 µM (≈ 6.24 µg/mL).

And the MIC [5]?
The MIC was 8.37 µM (≈ 6.24 µg/mL).

And the MIC (Staphylococcus aureus [6])?
Its MIC is 8.37 µM (≈ 6.24 µg/mL).

And the MIC (Staphylococcus aureus [7])?
Its MIC is 8.37 µM (≈ 6.24 µg/mL).

And the MIC (Staphylococcus aureus [8])?
Its MIC is 8.37 µM (≈ 6.24 µg/mL).

What about the MIC (Staphylococcus aureus [9]) of the same compound?
Its MIC is 33.5 µM (≈ 25 µg/mL).

What about the MIC [10] of the same compound?
Its MIC is 8.37 µM (≈ 6.24 µg/mL).

What about the MIC (Staphylococcus aureus [11]) of the same compound?
The MIC was 8.37 µM (≈ 6.24 µg/mL).

And the MIC [12]?
The MIC was 16.8 µM (≈ 12.5 µg/mL).

What about the MIC (Staphylococcus aureus [13]) of the same compound?
The MIC was 8.37 µM (≈ 6.24 µg/mL).

And the MIC (Staphylococcus aureus [14])?
The MIC was 8.37 µM (≈ 6.24 µg/mL).

And the MIC (Staphylococcus aureus [15])?
Its MIC is 16.8 µM (≈ 12.5 µg/mL).

And the MIC [16]?
Its MIC is 8.37 µM (≈ 6.24 µg/mL).

What about the MIC (Staphylococcus aureus [17]) of the same compound?
Its MIC is 8.37 µM (≈ 6.24 µg/mL).

What about the MIC [18] of the same compound?
Its MIC is 33.5 µM (≈ 25 µg/mL).

What about the MIC (Staphylococcus aureus [19]) of the same compound?
Its MIC is 8.37 µM (≈ 6.24 µg/mL).

And the MIC [20]?
Its MIC is 8.37 µM (≈ 6.24 µg/mL).

What about the MIC (Staphylococcus aureus [21]) of the same compound?
The MIC was 8.37 µM (≈ 6.24 µg/mL).

What about the MIC (Staphylococcus aureus [22]) of the same compound?
Its MIC is 16.8 µM (≈ 12.5 µg/mL).

And the MIC [23]?
The MIC was 8.37 µM (≈ 6.24 µg/mL).

What about the MIC [24] of the same compound?
Its MIC is 8.37 µM (≈ 6.24 µg/mL).

And the MIC [25]?
The MIC was 16.8 µM (≈ 12.5 µg/mL).

And the MIC (Staphylococcus aureus [26])?
Its MIC is 8.37 µM (≈ 6.24 µg/mL).

And the MIC (Staphylococcus aureus [27])?
Its MIC is 8.37 µM (≈ 6.24 µg/mL).

And the MIC (Staphylococcus aureus [28])?
Its MIC is 33.5 µM (≈ 25 µg/mL).

And the MIC (Staphylococcus aureus [29])?
The MIC was 8.37 µM (≈ 6.24 µg/mL).

What about the MIC (Staphylococcus aureus [30]) of the same compound?
The MIC was 8.37 µM (≈ 6.24 µg/mL).

With CC[C@@]1([C@@H]2O[C@@H]([C@H]3O[C@@](O)(CO)[C@H](C)C[C@@H]3C)C[C@@H]2C)CC[C@H]([C@]2(C)CC[C@]3(C[C@H](O)[C@@H](C)[C@@H]([C@@H](C)[C@@H](OC)[C@H](C)C(=O)O)O3)O2)O1 [MONENSIN] as the compound, how does the MIC (Staphylococcus aureus [1]) read?
Its MIC is 2.98 µM (≈ 2 µg/mL).

And the MIC (Staphylococcus aureus [2])?
Its MIC is 2.98 µM (≈ 2 µg/mL).

And the MIC [3]?
The MIC was 1.49 µM (≈ 1 µg/mL).

What about the MIC (Staphylococcus aureus [4]) of the same compound?
Its MIC is 2.98 µM (≈ 2 µg/mL).

And the MIC [5]?
Its MIC is 2.98 µM (≈ 2 µg/mL).

And the MIC (Staphylococcus aureus [6])?
The MIC was 1.49 µM (≈ 1 µg/mL).

What about the MIC (Staphylococcus aureus [7]) of the same compound?
Its MIC is 2.98 µM (≈ 2 µg/mL).

What about the MIC (Staphylococcus aureus [8]) of the same compound?
Its MIC is 2.98 µM (≈ 2 µg/mL).

What about the MIC (Staphylococcus aureus [9]) of the same compound?
The MIC was 2.98 µM (≈ 2 µg/mL).

And the MIC [10]?
The MIC was 1.49 µM (≈ 1 µg/mL).

What about the MIC (Staphylococcus aureus [11]) of the same compound?
Its MIC is 1.49 µM (≈ 1 µg/mL).

What about the MIC [12] of the same compound?
Its MIC is 2.98 µM (≈ 2 µg/mL).

And the MIC (Staphylococcus aureus [13])?
Its MIC is 1.49 µM (≈ 1 µg/mL).

And the MIC (Staphylococcus aureus [14])?
Its MIC is 1.49 µM (≈ 1 µg/mL).

And the MIC (Staphylococcus aureus [15])?
The MIC was 2.98 µM (≈ 2 µg/mL).

What about the MIC [16] of the same compound?
Its MIC is 1.49 µM (≈ 1 µg/mL).

What about the MIC (Staphylococcus aureus [17]) of the same compound?
The MIC was 2.98 µM (≈ 2 µg/mL).

What about the MIC [18] of the same compound?
The MIC was 5.96 µM (≈ 4 µg/mL).

What about the MIC (Staphylococcus aureus [19]) of the same compound?
The MIC was 1.49 µM (≈ 1 µg/mL).

What about the MIC [20] of the same compound?
The MIC was 1.49 µM (≈ 1 µg/mL).

What about the MIC (Staphylococcus aureus [21]) of the same compound?
Its MIC is 1.49 µM (≈ 1 µg/mL).

And the MIC (Staphylococcus aureus [22])?
The MIC was 2.98 µM (≈ 2 µg/mL).

And the MIC [23]?
The MIC was 2.98 µM (≈ 2 µg/mL).

And the MIC [24]?
The MIC was 1.49 µM (≈ 1 µg/mL).

And the MIC [25]?
Its MIC is 2.98 µM (≈ 2 µg/mL).

What about the MIC (Staphylococcus aureus [26]) of the same compound?
The MIC was 2.98 µM (≈ 2 µg/mL).

And the MIC (Staphylococcus aureus [27])?
Its MIC is 2.98 µM (≈ 2 µg/mL).

What about the MIC (Staphylococcus aureus [28]) of the same compound?
The MIC was 5.96 µM (≈ 4 µg/mL).

What about the MIC (Staphylococcus aureus [29]) of the same compound?
The MIC was 2.98 µM (≈ 2 µg/mL).

What about the MIC (Staphylococcus aureus [30]) of the same compound?
Its MIC is 1.49 µM (≈ 1 µg/mL).
